pEC50: −log10 of the molar value.
Experiments:
[1] = tested on: IκBα, p21 and p27; assay: Western blot analyses in NF-κB/Luc 293 cells; format: cell-based, human
Source text: (§1) Furthermore, a stable HEK293 clone (NF-κB/Luc 293) was generated carrying a luciferase reporter gene under the regulation of 5×NF-κB binding sites.

[2] = molecular target: T1, proteasome chymotrypsin-like activity in Packed Whole Blood Lysate (Mus musculus, UniProt O55234); assay: Whole blood proteasome activity (PWBL assay) after dosing of mice; format: in vivo; settings: male Swiss-Webster mice
T1 construct: The supernatant (Packed Whole Blood Lysate, PWBL) was transferred to a fresh tube; from tissue; host or cells: packed whole blood cells of Swiss-Webster mice, hypotonic lysate
T1 sequence (O55234 60-264): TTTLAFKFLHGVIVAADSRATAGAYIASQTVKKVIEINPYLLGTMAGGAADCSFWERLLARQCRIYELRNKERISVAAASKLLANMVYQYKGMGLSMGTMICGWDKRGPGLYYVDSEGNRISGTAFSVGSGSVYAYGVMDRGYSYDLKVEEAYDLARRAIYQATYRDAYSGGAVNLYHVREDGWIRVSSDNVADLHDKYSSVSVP
Experimental: In brief, frozen whole blood samples were thawed on ice for one hour, and resuspended in 700 μL of ice cold 5 mM EDTA, pH 8.0 in order to lyse the cells by hypotonic shock. This represents approximately 2-3 times the volume of the packed whole blood cells. Lysis was allowed to proceed for one hour, and the cellular debris was removed by centrifugation at 14,000×g for 10 minutes. The supernatant (Packed Whole Blood Lysate, PWBL) was transferred to a fresh tube, and the pellet discarded. Protein concentration of the PWBL was determined by BCA assay (Pierce) using BSA as a standard.
Proteasome activity was determined by measuring the hydrolysis of a fluorogenic substrate specific for the chymotrypsin-like activity of proteasomes (suc-LLVY-AMC, Bachem Cat. 1-1395). […] The reactions were initiated by the addition of 10 μL of 0.4 mM suc-LLVY-AMC (prepared by diluting a 10 mM solution of the peptide in DMSO 1:25 with assay buffer), and incubated in a fluorometer (Labsystems Fluoroskan) at 37° C. Hydrolysis of the substrate results in the release of free AMC, which was measured fluorometrically by using λex=390 nm and λem=460 nm. The rate of hydrolysis in this system is linear for at least one hour. The hydrolysis rate of each sample is then normalized to relative fluorescent units per milligram of protein (RFU/mg).
The vehicle control consisted of 2% DMSO in 10% solutol. […]

[3] = tested on: NF-κB/IκB signaling pathway; assay: TNF-α stimulated HEK293 cells, IκBα phosphorylation and degradation; format: cell-based, human; settings: HEK293 cells pre-treated 1 hour, then TNF-α stimulation
Source text: Treatment of HEK293 cells (human embryonic kidney) with Tumor Necrosis Factor-alpha (TNF-α) induces phosphorylation and proteasome-mediated degradation of IκBα followed by NF-κB activation.

[4] = tested on: NF-κB; assay: NF-κB/Luc 293 luciferase reporter assay with TNF-α stimulation; format: cell-based, human; settings: NF-κB/Luc 293 cells, pretreatment before TNF-α
Source text: as §1

[5] = molecular target: proteasome (Homo sapiens, UniProt Q99436); assay: Trypsin-like inhibitory activity of the proteasome (summary); format: biochemical; settings: proteasome source not stated
[6] = tested on: Mycobacterium tuberculosis; assay: Survival assays of Mycobacterium tuberculosis on agar plates after nitrite exposure; format: cell-based; settings: plating on agar after 6 days of exposure; present-tense example without data
[7] = In vitro cytotoxicity
[8] = Maximum tolerated dose determination, intravenous, female BALB/c mice; format: in vivo
Source text: In vivo studies were designed to determine the MTD of Salinosporamide A when administered intravenously to female BALB/c mice.

[9] = tested on: any other known protease; settings: Meng et al., 1999; cited from earlier work
[10] = NF-κB/Luc 293 cells, Western blot

Row | SMILES | levels of cell cycle regulatory proteins p21 and p27 [1] | degradation of total IκBα [1, 10] | phosphorylated-IκBα level [1, 10] | proteasomal activity in PWBL ([2]; blood 90 min after administration, dose dependent (FIG. 4)) | activity upon oral administration (PWBL proteasome inhibition) ([2]; oral dosing) | phosphorylated IκBα level [3] | luciferase activity [4] | trypsin-like inhibitory activity [5] [nM] | antimycobacterial effect of nitrite [6] | pEC50 [7] | behavioral changes ([8]; during the course of the experiment) | well tolerated dose ([8]; i.v. daily for five consecutive days (qdx5)) | tolerated dose ([8]; single intravenous dose (qdx1)) | inhibitory activity towards other proteases [9]
1 | C[C@@]12OC(=O)[C@]1([C@@H](O)[C@@H]1C=CCCC1)NC(=O)[C@@H]2CCCl [Salinosporamide A] | increase the levels | decreased the degradation of total IκBα | promoted the accumulation of phosphorylated-IκBα | profound decrease in proteasomal activity in PWBL | active upon oral administration | promoted the accumulation of phosphorylated IκBα | decreases activity | ~10 | able to augment the antimycobacterial effect of nitrite | 6.70 to 8.00 | No behavioral changes were noted | up to 0.1 mg/kg | up to 0.25 mg/kg | 
2 | CC[C@H](C)[C@H](NC(=O)[C@H]([C@@H](C)CC)N(C)C(C)=O)C(=O)N[C@H](C(=O)N[C@@H](CC(C)C)C(=O)[C@@]1(C)CO1)[C@@H](C)O [Epoxomicin] |  |  |  |  |  |  |  |  |  |  |  |  |  | no inhibitory activity towards any other known protease

From patent US20120264678A1, “METHODS OF USING [3.2.0] HETEROCYCLIC COMPOUNDS AND ANALOGS THEREOF FOR TREATING INFECTIOUS DISEASES” (priority 2007, published 2012)
